The values that follow come from patent US11129386B2, “Microbiocidal quinoline (thio)carboxamide derivatives” (SYNGENTA PARTICIPATIONS AG, priority 2017, dated 2021).

Data set [1] relates to Glomerella lagenarium (Colletotrichum lagenarium). Description: Glomerella lagenarium (Colletotrichum lagenarium)/liquid culture (Anthracnose). Format: cell-based. The settings on record: Colletotrichum orbiculare, 72 h, liquid culture, growth inhibition photometrically 3-4 days after application, compared to untreated control.
In data set [2] the test system is Botryotinia fuckeliana (Botrytis cinerea). Kind of data set: Botryotinia fuckeliana (Botrytis cinerea)/liquid culture (Gray mould). Type of data set: cell-based. To be noted: liquid culture, growth inhibition photometrically 3-4 days after application, compared to untreated control.
Data set [3] deals with Fusarium culmorum. Description: microbe, parasite or virus in culture. To be noted: read-out: control of Fusarium culmorum. Format: cell-based.
Data set [4] has as its system Magnaporthe grisea (Pyricularia oryzae). Description: microbe, parasite or virus in culture. To be noted: read-out: control of Magnaporthe grisea. Format: cell-based.

On to `CC(C)=C(F)CC(CC(C)C)C(=O)Nc1cnc2c(F)cccc2c1` (centres unmarked) [Compound E10], for which the melting point (as a rule, the temperature, or range, at which the solid turns liquid) was in the range of 103 to 105 °C. Further, the inhibition of growth at 20 ppm in data set [1] is at least 80%. The compound also showed an inhibition of growth at 20 ppm in data set [2] of at least 80%. For the same compound, the inhibition of growth at 20 ppm in data set [3] was at least 80%. The inhibition of growth at 20 ppm in data set [4] was at least 80%.

As for `C=CCC(C)(CC(C)C)C(=O)Nc1cnc2c(F)cccc2c1` (centres unmarked) [Compound E7], the inhibition of growth at 20 ppm in data set [1], in data set [2], in data set [3] and in data set [4] was at least 80% each time.

Turning to `C/C=C(\C)CC(C)(CC(C)C)C(=O)Nc1cnc2c(F)cccc2c1` (centres unmarked) [Compound E2], the melting point was 135 to 137 °C. In data set [1], this compound showed an inhibition of growth at 20 ppm of at least 80%. Besides, the inhibition of growth at 20 ppm in data set [2] was at least 80%. Moreover, the inhibition of growth at 20 ppm in data set [3] is at least 80%. For the same compound, in data set [4], the inhibition of growth at 20 ppm was at least 80%.

Turning to `C=C(C)CC(C)C(=O)Nc1cnc2c(F)cccc2c1` (centres unmarked) [Compound E9], the inhibition of growth at 20 ppm in data set [1], in data set [2] and in data set [3] was at least 80% each time.

Consider `CC(C)=C(F)CC(C)(CC(C)C)C(=O)Nc1cnc2ccccc2c1` (centres unmarked) [Compound E4], for which the inhibition of growth at 20 ppm in data set [1], in data set [2], in data set [3] and in data set [4] was at least 80% each time.

As for `CC1(CC(C)(CC(F)(F)F)C(=O)Nc2cnc3c(F)cccc3c2)CC1` (centres unmarked) [Compound E1, 4,4,4-trifluoro-N-(8-fluoro-3-quinolyl)-2-methyl-2-[(1-methylcyclopropyl)methyl]butanamide], the melting point was in the range of 60 to 70 °C. For the same compound, in data set [1], the inhibition of growth at 20 ppm was at least 80%. In data set [2], this compound gave an inhibition of growth at 20 ppm of at least 80%. The inhibition of growth at 20 ppm in data set [3] is at least 80%. Moreover, the inhibition of growth at 20 ppm in data set [4] was at least 80%.

In the case of `Cc1c(NC(=O)C(C)CC(C)C)cnc2c(F)cccc12` (centres unmarked) [Compound E13], the inhibition of growth at 20 ppm in data set [1], in data set [2] and in data set [3] was at least 80% each time.

In the case of `CC(CC(F)(F)F)C(=O)Nc1cnc2c(F)cccc2c1` (centres unmarked) [Compound E14], the inhibition of growth at 20 ppm in data set [1], in data set [2] and in data set [3] was at least 80% each time.

Turning to `CC(C)CC(C)(CC1CC1)C(=O)Nc1cnc2c(F)cccc2c1` (centres unmarked) [Compound E5], the inhibition of growth at 20 ppm in data set [1], in data set [2], in data set [3] and in data set [4] was at least 80% in each case.

As for `C=C(Cl)CC(C)(CC1CCCCC1)C(=O)Nc1cnc2c(F)cccc2c1` (centres unmarked) [Compound E12], the inhibition of growth at 20 ppm in data set [1], in data set [2], in data set [3] and in data set [4] was at least 80% each time.

Compound `CC(CC1CCCCC1)C(=O)Nc1cnc2c(F)cccc2c1` (centres unmarked) [Compound E11] gave a melting point of 179 to 181 °C. In data set [1], this compound returned an inhibition of growth at 20 ppm of at least 80%. The compound also had an inhibition of growth at 20 ppm in data set [2] of at least 80%. In addition, the inhibition of growth at 20 ppm in data set [3] is at least 80%. The inhibition of growth at 20 ppm in data set [4] was at least 80%.

In the case of `CC(C)CC(C#N)(CC(C)C)C(=O)Nc1cnc2c(F)cccc2c1` [Compound E6], the inhibition of growth at 20 ppm in data set [1], in data set [2], in data set [3] and in data set [4] was at least 80% throughout.

`CC(C)=C(C)CC(C)(CC(C)C)C(=O)Nc1cnc2c(F)cccc2c1` (centres unmarked) [Compound E3]: the inhibition of growth at 20 ppm in data set [1], in data set [2], in data set [3] and in data set [4] was at least 80% each time.
